Reference: paper PMC4545913, “Dual EZH2 and EHMT2 histone methyltransferase inhibition increases biological efficacy in breast cancer cells” (Clinical Epigenetics, 2015)

Tests used:
SPINK1 = assay: qRT-PCR of SPINK1 mRNA in MDA-MB-231 cells; type: cell-based; conditions: MDA-MB-231, multiple doses and time points
Method: Following compound treatment of MDA-MB-231 for 48 h (in 6-well plates), media was removed and 1.5 ml of TRIzol (Invitrogen) was added directly to lyse cells and RNA was isolated according to the manufacturer’s instructions. Reverse transcription was done using the SuperScript III First-Strand Synthesis System (Invitrogen) according to the manufacturer’s instructions. Each measurement was done in triplicate, and the List of Primers can be found in Additional file 2: Table S1. For normalisation, we have used GAPDH and RNA pol II. Experiments were also done with the ‘Fast Sybr Green Cell-to-CT™-Kit’ according to the manufacturer’s instructions (Applied Biosystem). Fifteen thousand cells per 96 well were plated, and after 24 h, treated with compounds at various concentrations.
For qRT-PCR measurements the 2x iQ SYBR Green Supermix (Bio-Rad), 200nM Primers and 0.4μl of cDNA /per 20μl reaction was used. The measurement was done in low-white 96-well plates (Bio-Rad) on a CFX96 Real-time System/C1000 Thermal Cycler (Bio-Rad) with the following protocol: 95°C for 3’; 95°C for 10’’, 56°C for 10’’, 72°C for 30’’ 42 cycles followed by a melting curve from 72°C to 95°C.

MDA-MB-231 cells [1] = assay: MTT cell viability assay; type: cell-based; conditions: Homo sapiens
Method: Fig. 1 MTT and mRNA levels in MDA-MB-231 cells after pharmacological inhibition and siRNA knockdown of EZH2 and EHMT2(G9a), individually and in combination. a Expression levels of KRT17, FBX032, JMJD3, EZH2, SPINK1 and EHMT2 were measured by qRT-PCR in the MDA-MB-231 cell line 48 h after transfection with siRNAs targeting EZH2 and EHMT2, both individually and in combination. All measurements were normalised to the fold-change (relative to GAPDH) in the mock transfection control. Error bars represent the mean ± SD of experiment performed in technical triplicate. b Expression levels of KRT17, FBX032, JMJD3 and SPINK1 were measured by qRT-PCR in the MDA-MB-231 cell line treated for 48 h with GSK343, UNC0638, and UNC0638 (at 7.5 μM) with increasing doses of GSK343. Each group has been compared to the untreated sample following normalisation to GAPDH. Error bars represent the mean ± SD of experiment performed in technical triplicate. c MTT assay for cell viability of MDA-MB-231 cells after treatment. MDA-MB-231 cells were seeded in 96 well plates. After 24 h, increasing doses of GSK343, UNC0638 or combination treatments (1, 2.5, 5, 7.5, 10 and 15 μM) were added to cells. Control was media with 0.5 % DMSO. Cell viability was measured by MTT assay after a 48-h treatment and a 24-h proliferation period. Error bars represent the mean ± SEM of five independent repeats
(§1) For clonogenic assays, cells were treated with compound for 48 h, media were removed and replaced with fresh media for a further 12 days to measure colony formation. For cell viability assays, lymphoma cells were plated at 20,000 cells in 200 μl per well in U-bottom 96 well plates in RPMI medium +20 % FCS. Cells were re-suspended 48 h later, diluted 10-fold in PBS + propidium iodide (PI) and the concentration of PI negative cells was counted using an Attune flow cytometer with autosampler. Breast cancer cells were seeded at a density of 10,000 cells/well in a sterile 96 clear-well plate with 150 μl of DMEM (+10 % FCS and 2 mM L-Glutamine). Each compound treatment was performed in triplicate for 72 h at concentrations of 100 nM and 1, 5, 10 and 50 μM in 100 μl of full-medium. After 72 h, 20 μl of MTT solution (3 mg of MTT Formazan, Sigma/1 ml PBS) was added to the medium and incubated for 4 h at 37 °C in a CO2 incubator. The MTT-product was solubilised with 100 μl DMSO, and for 1 h, incubated in the dark at room temperature. The optical density was read at 570 nm with PHERAstar.

MDA-MB-231 cells [2] = assay: Clonogenic growth assay; type: cell-based; conditions: Homo sapiens; MDA-MB-231, 48 h treatment then 12 days in fresh media
Method: as §1

breast cancer cell lines = assay: MTT anti-proliferative effect on a small panel of breast cancer cell lines; type: cell-based; conditions: read-out: Anti-proliferative IC50 values, range over panel
Method: The anti-proliferative effect of HKMTI-1-005 on a small panel of breast cancer cell lines was determined, with IC50 values in the range 2–10 μM (Table 3). […] The breast cancer cell line BT-474, which is the cell line most sensitive to HKMTI-1-005 treatment, has the highest relative expression of EZH2, as detected by Western analysis (data not shown).
as §1, with “The MTT-product was solubilised with 100 μl DMSO, and for 1 h, incubated in the dark at room temperature.” left out

[3] = target: trimeric PRC2 complex (EZH2:EED:SUZ12) (Homo sapiens, UniProt Q15910); assay: PRC2 enzymatic assay (SPA-type), biotinylated-H3 (21–44) peptide substrate; type: biochemical; conditions: mechanism of inhibition studies (Figure S4)
Sequence of trimeric PRC2 complex (EZH2:EED:SUZ12) (Homo sapiens, UniProt Q15910) (Q15910 whole entry): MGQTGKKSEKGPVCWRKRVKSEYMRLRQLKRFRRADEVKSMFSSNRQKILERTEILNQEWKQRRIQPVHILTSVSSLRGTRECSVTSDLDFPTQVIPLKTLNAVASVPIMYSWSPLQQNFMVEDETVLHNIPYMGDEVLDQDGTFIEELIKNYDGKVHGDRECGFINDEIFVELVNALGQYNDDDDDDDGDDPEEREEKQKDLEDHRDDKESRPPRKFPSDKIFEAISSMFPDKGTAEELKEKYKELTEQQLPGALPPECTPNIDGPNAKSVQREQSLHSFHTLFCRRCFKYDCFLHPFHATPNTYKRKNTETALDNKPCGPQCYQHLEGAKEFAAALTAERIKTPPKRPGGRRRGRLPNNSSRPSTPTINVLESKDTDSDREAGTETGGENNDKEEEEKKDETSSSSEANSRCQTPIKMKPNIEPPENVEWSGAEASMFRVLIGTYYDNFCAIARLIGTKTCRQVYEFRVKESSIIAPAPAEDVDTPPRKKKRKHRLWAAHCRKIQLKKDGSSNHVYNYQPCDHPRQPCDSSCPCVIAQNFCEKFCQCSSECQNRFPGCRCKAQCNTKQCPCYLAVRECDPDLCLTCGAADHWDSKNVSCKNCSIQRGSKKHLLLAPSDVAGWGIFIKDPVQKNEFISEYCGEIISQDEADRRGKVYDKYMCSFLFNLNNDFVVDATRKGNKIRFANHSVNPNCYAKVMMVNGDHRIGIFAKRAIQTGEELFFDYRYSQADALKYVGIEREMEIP
Sequence of trimeric PRC2 complex (EZH2:EED:SUZ12) (Homo sapiens, UniProt Q15910) (O75530 whole entry partner): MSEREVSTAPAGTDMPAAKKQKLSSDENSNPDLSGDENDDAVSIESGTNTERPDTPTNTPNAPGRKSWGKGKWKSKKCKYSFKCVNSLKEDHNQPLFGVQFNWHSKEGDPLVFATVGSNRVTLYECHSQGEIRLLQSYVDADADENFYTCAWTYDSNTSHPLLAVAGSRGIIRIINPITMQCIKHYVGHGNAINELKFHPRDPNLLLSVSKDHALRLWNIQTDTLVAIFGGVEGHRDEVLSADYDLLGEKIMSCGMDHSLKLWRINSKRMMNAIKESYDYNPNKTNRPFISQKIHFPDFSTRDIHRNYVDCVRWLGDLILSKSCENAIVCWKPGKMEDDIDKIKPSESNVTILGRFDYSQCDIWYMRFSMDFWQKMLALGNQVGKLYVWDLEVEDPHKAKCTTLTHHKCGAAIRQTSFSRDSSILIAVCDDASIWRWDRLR
Sequence of trimeric PRC2 complex (EZH2:EED:SUZ12) (Homo sapiens, UniProt Q15910) (Q15022 whole entry partner): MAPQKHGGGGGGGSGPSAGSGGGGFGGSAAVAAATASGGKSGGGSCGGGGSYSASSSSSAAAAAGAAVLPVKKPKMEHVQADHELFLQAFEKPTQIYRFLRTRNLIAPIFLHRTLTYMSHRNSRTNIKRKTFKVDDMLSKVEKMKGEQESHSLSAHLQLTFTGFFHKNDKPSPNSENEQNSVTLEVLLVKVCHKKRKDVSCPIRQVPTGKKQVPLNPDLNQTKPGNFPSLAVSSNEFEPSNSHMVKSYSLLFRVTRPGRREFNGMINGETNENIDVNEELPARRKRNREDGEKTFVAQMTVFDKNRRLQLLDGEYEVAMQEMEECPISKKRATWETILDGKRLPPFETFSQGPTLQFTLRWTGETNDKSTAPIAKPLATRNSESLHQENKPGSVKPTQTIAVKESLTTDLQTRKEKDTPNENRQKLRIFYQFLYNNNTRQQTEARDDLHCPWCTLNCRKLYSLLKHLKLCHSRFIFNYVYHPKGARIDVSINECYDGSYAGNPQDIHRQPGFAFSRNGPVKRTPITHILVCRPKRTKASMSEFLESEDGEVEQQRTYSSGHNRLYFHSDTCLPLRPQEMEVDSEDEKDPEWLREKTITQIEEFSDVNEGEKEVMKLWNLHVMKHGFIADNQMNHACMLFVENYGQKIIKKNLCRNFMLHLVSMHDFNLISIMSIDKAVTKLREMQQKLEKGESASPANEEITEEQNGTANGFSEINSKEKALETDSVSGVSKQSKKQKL
Excerpt: (§2) A trimeric PRC2 complex (EZH2:EED:SUZ12) was employed in this assay, along with a biotinylated-H3 (21–44) peptide substrate. […] Since the peptide substrates used in these assays are poor models for the complex and dynamic structure of the chromatin substrate in cells and since the only minimal number of PRC2 proteins (EZH2:EED:SUZ12) required for enzymatically active EZH2 were employed in the PRC2 assay, care should be taken in the over interpretation of this in vitro inhibitory data.

[4] = target: trimeric PRC2 complex (EZH2:EED:SUZ12) (Homo sapiens, UniProt O75530+Q15022+Q15910); assay: as above; type: biochemical; conditions: EZH2:EED:SUZ12, biotinylated-H3 (21–44) peptide substrate
Sequence of trimeric PRC2 complex (EZH2:EED:SUZ12) (Homo sapiens, UniProt O75530+Q15022+Q15910) (Q15910 whole entry): as the sequence (Q15910 whole entry) above
Sequence of trimeric PRC2 complex (EZH2:EED:SUZ12) (Homo sapiens, UniProt O75530+Q15022+Q15910) (O75530 whole entry partner): as the sequence (O75530 whole entry partner) above
Sequence of trimeric PRC2 complex (EZH2:EED:SUZ12) (Homo sapiens, UniProt O75530+Q15022+Q15910) (Q15022 whole entry partner): as the sequence (Q15022 whole entry partner) above
Excerpt: as §2

IC50 (MDA-MB-231 cells [1]; MDA-MB-231, MTT (Table 3B), read-out: Cell growth IC50 MDA-MB-231): 4.3 µM
IC50 (MDA-MB-231 cells [1]; MDA-MB-231 (Table 2), read-out: Cell viability (MTT) IC50): 4.3 µM
IC50 (MDA-MB-231 cells [2]): 0.41 µM
IC50 (breast cancer cell lines): 2 to 10 µM
Mechanism of PRC2 inhibition [3]: peptide substrate competitive
IC50 [4]: 24 µM
Structure (SMILES): COc1cc2nc(N3CCN(C)CC3)nc(NC3CCN(Cc4ccccc4)CC3)c2cc1OC [HKMTI-1-005]
SPINK1 expression upon treatment (SPINK1): increased
